From EPA's ToxRefDB 2

Legend:
rat [1] = conditions: Prenatal developmental toxicity study, sprague dawley, Inhalation, Whole-Body, dose end: 20 GD
rat [2] = conditions: Subchronic oral toxicity in rodents; wistar; Inhalation; Whole-Body; dose end: 90 day; group: systemic; systemic / clinical chemistry / alkaline phosphatase (alp/alk) / alkaline phosphatase (alp/alk) + systemic / clinical chemistry / lactic …
mouse [3] = conditions: Combined chronic toxicity/carcinogenicity, cd1, Oral, Feed, dose end: 104 week, group: systemic
rat [4] = conditions: Combined chronic toxicity/carcinogenicity; sprague dawley; Oral; Feed; dose end: 2 year; group: systemic; systemic / in life observation / body weight / body weight + systemic / in life observation / food consumption / food consumption
dog [5] = conditions: Subchronic oral toxicity in nonrodent, beagle, Capsule, dose end: 26 week, group: systemic
rat [6] = conditions: Subchronic oral toxicity in rodents, wistar, [Not Specified], dose end: 13 week, group: systemic
rat [7] = conditions: Multigenerational reproductive toxicity study, wistar, Oral, Feed, dose end: 3 generation
rat [8] = conditions: Combined chronic toxicity/carcinogenicity; sprague dawley; Oral; Feed; dose end: 24 month; group: systemic; systemic / in life observation / body weight / body weight gain
rat [9] = conditions: Prenatal developmental toxicity study, sprague dawley, Oral, Gavage/Intubation, dose end: 19 GD
rat [10] = conditions: Subchronic oral toxicity in rodents, other, Feed, dose end: 13 week, group: systemic
mouse [11] = conditions: Carcinogenicity, cd1, Oral, Feed, dose end: 24 month, group: systemic
dog [12] = conditions: Subchronic oral toxicity in nonrodent, beagle, Feed, dose end: 26 week, group: systemic
dog [13] = conditions: Chronic toxicity, beagle, Oral, Feed, dose end: 52 week
rat [14] = conditions: Prenatal developmental toxicity study, other, Oral, Gavage/Intubation, dose end: 16 GD
mouse [15] = conditions: Carcinogenicity; cd1; Oral; Feed; dose end: 18 month; group: systemic; systemic / in life observation / body weight / body weight + systemic / in life observation / mortality / mortality
rat [16] = conditions: Multigenerational reproductive toxicity study, sprague dawley, Oral, Feed, dose end: 2 generation
rat [17] = conditions: Subchronic oral toxicity in rodents, sprague dawley, Feed, dose end: 90 day
[18] = group: developmental, systemic / in life observation / body weight / fetal weight
[19] = group: maternal, systemic / in life observation / body weight / body weight gain + systemic / in life observation / food consumption / food consumption
[20] = systemic / in life observation / clinical signs / defecation (diarrhea)
[21] = systemic / in life observation / clinical signs / defecation (diarrhea) + systemic / in life observation / clinical signs / headflicking + …
[22] = systemic / clinical chemistry / aminopyrine-n-demethylase / aminopyrine-n-demethylase + systemic / in life observation / body weight / body …
[23] = group: offspring, systemic / in life observation / body weight / offspring (pup) weight + systemic / in life observation / body weight / offspring (pup) …
[24] = group: parental, systemic / in life observation / body weight / body weight + systemic / in life observation / body weight / body weight gain
[25] = group: reproductive, reproductive / offspring survival early / litter size / litter size + reproductive / offspring survival early / birth index / live birth …
[26] = group: developmental, developmental / developmental malformation / bone / [other] + developmental / developmental malformation / bone / unossified
[27] = group: maternal, systemic / in life observation / body weight / body weight gain + systemic / in life observation / clinical signs / nasal discharge + …
[28] = systemic / organ weight / liver / absolute + systemic / organ weight / liver / relative to body weight
[29] = systemic / in life observation / body weight / body weight + systemic / in life observation / body weight / body weight gain
[30] = systemic / in life observation / body weight / body weight + systemic / in life observation / body weight / body weight gain + systemic / …
[31] = group: cholinesterase, cholinesterase / cholinesterase / cholinesterase / brain cholinesterase (che)
[32] = group: cholinesterase, cholinesterase / cholinesterase / cholinesterase / brain cholinesterase (che) + cholinesterase / cholinesterase / cholinesterase / plasma …
[33] = group: systemic, systemic / in life observation / body weight / body weight + systemic / in life observation / body weight / body weight gain + systemic / in…
[34] = group: systemic, systemic / in life observation / body weight / body weight gain
[35] = group: maternal, systemic / in life observation / body weight / body weight gain + systemic / in life observation / clinical signs / tremors + systemic / in …
[36] = group: offspring, systemic / in life observation / body weight / offspring (pup) weight
[37] = group: offspring, systemic / in life observation / body weight / offspring (pup) weight + developmental / offspring survival late / [other] / [other] + …
[38] = group: parental, systemic / in life observation / body weight / body weight + systemic / in life observation / body weight / body weight gain + systemic / in…
[39] = group: cholinesterase, cholinesterase / cholinesterase / cholinesterase / brain cholinesterase (che) + cholinesterase / cholinesterase / cholinesterase / …
[40] = group: systemic, systemic / in life observation / body weight / body weight + systemic / in life observation / clinical signs / abnormal gait + systemic / in…

For Cc1ccc(C)c(C)c1 [1,2,4-Trimethylbenzene], the LEL (rat [1]; [18]) was 600 ppm, the LOAEL (rat [1]; [18]) was over 600 ppm and the NEL (rat [1]; [18]) was 300 ppm. The NOAEL (rat [1]; [18]) was at least 600 ppm, the LEL (rat [1]; [19]) was 600 ppm and the LOAEL (rat [1]; [19]) was over 600 ppm. It also gave an NEL (rat [1]; [19]) of 300 ppm, an NOAEL (rat [1]; [19]) of at least 600 ppm and an LEL (rat [2]) of 25 ppm. For the same compound, the LOAEL (rat [2]) was over 250 ppm, the NEL (rat [2]) was under 25 ppm and the NOAEL (rat [2]) was at least 250 ppm.
CC1(C)C(C=C(Cl)C(F)(F)F)C1C(=O)OC(C#N)c1cccc(Oc2ccccc2)c1 (stereo not given) [Cyhalothrin] showed an NEL (mouse [3]; systemic / in life observation / body weight / body weight + systemic / in life observation / body weight / body weight gain + systemic / in…) of 3 mg/kg/day, an NOAEL (mouse [3]; systemic / in life observation / clinical signs / hunched posture + systemic / in life observation / clinical signs / piloerection) of 15 mg/kg/day and an LOAEL (mouse [3]; systemic / in life observation / clinical signs / hunched posture + systemic / in life observation / clinical signs / piloerection + …) of 75 mg/kg/day. It also gave an LEL (mouse [3]; systemic / in life observation / clinical signs / piloerection) of 15 mg/kg/day, an LEL (rat [4]) of 12.5 mg/kg/day and an LOAEL (rat [4]) of 12.5 mg/kg/day. For the same compound, the NEL (rat [4]) was 2.5 mg/kg/day, the NOAEL (rat [4]) was 2.5 mg/kg/day and the LEL (dog [5]; [20]) was 2.5 mg/kg/day. It also gave an LOAEL (dog [5]; [20]) of 2.5 mg/kg/day, an NEL (dog [5]; [21]) of 1 mg/kg/day and an NOAEL (dog [5]; [21]) of 1 mg/kg/day. For the same compound, the LEL (rat [6]; systemic / clinical chemistry / aminopyrine-n-demethylase / aminopyrine-n-demethylase) was 2.5 mg/kg/day, the NEL (rat [6]; [22]) was 0.5 mg/kg/day and the NOAEL (rat [6]; [22]) was 2.5 mg/kg/day. It also gave an LOAEL (rat [6]; systemic / in life observation / body weight / body weight gain) of 12.5 mg/kg/day, an LEL (rat [7]; [23]) of 1.5 mg/kg/day and an LOAEL (rat [7]; [23]) of 5 mg/kg/day. For the same compound, the NEL (rat [7]; [23]) was 0.5 mg/kg/day, the NOAEL (rat [7]; [23]) was 1.5 mg/kg/day and the LEL (rat [7]; [24]) was 1.5 mg/kg/day. The LOAEL (rat [7]; [24]) was 5 mg/kg/day, the NEL (rat [7]; [24]) was 0.5 mg/kg/day and the NOAEL (rat [7]; [24]) was 1.5 mg/kg/day. It also gave an NEL (rat [7]; group: reproductive, reproductive / offspring survival early / litter size / litter size) of 1.5 mg/kg/day, an LEL (rat [7]; [25]) of 5 mg/kg/day and an LOAEL (rat [7]; [25]) of over 5 mg/kg/day. For the same compound, the NOAEL (rat [7]; [25]) was at least 5 mg/kg/day.
In the case of Nc1nc(N)nc(NC2CC2)n1 [Cyromazine], the LEL (rat [8]) is reported as 15 mg/kg/day, the LOAEL (rat [8]) is reported as 15 mg/kg/day and the NEL (rat [8]) is reported as 1.5 mg/kg/day. It also gave an NOAEL (rat [8]) of 1.5 mg/kg/day, an LEL (rat [9]; [26]) of 600 mg/kg/day and an LOAEL (rat [9]; [26]) of 600 mg/kg/day. It also gave an NEL (rat [9]; [26]) of 300 mg/kg/day, an NOAEL (rat [9]; [26]) of 300 mg/kg/day and an LOAEL (rat [9]; group: maternal, systemic / in life observation / body weight / body weight gain + systemic / in life observation / clinical signs / nasal discharge) of 300 mg/kg/day. The LEL (rat [9]; [27]) was 300 mg/kg/day, the NEL (rat [9]; [27]) was 100 mg/kg/day and the NOAEL (rat [9]; [27]) was 100 mg/kg/day. The LEL (rat [10]; [28]) was 3 mg/kg/day, the LOAEL (rat [10]; [28]) was 30 mg/kg/day and the NEL (rat [10]; [28]) was under 3 mg/kg/day. It also gave an NOAEL (rat [10]; systemic / organ weight / liver / absolute + systemic / organ weight / liver / relative to body weight + systemic / clinical chemistry / …) of 3 mg/kg/day, an LOAEL (mouse [11]; systemic / in life observation / body weight / body weight) of 150 mg/kg/day and an LEL (mouse [11]; [29]) of 150 mg/kg/day. It also gave an NEL (mouse [11]; [30]) of 7.5 mg/kg/day, an NOAEL (mouse [11]; [30]) of 7.5 mg/kg/day and an LOAEL (dog [12]; systemic / in life observation / body weight / body weight + systemic / hematology / hematocrit (hct) / hematocrit (hct) + systemic / …) of 75 mg/kg/day. The LEL (dog [12]; [29]) was 0.75 mg/kg/day, the NEL (dog [12]; [29]) was under 0.75 mg/kg/day and the NOAEL (dog [12]; [30]) was 7.5 mg/kg/day.
CNC(=O)ON=C(SC)C(=O)N(C)C [Oxamyl] was tested, and the LOAEL (dog [13]; [31]) was 1.56 mg/kg/day, the NOAEL (dog [13]; [31]) was under 1.56 mg/kg/day and the LEL (dog [13]; [32]) was 1.56 mg/kg/day. It also gave an NEL (dog [13]; [32]) of under 1.56 mg/kg/day, an LOAEL (dog [13]; [33]) of 4.5 mg/kg/day and an NOAEL (dog [13]; [33]) of 1.46 mg/kg/day. The LEL (dog [13]; [34]) was 1.56 mg/kg/day, the NEL (dog [13]; [34]) was under 1.56 mg/kg/day and the LEL (rat [14]; [18]) was 0.5 mg/kg/day. The LOAEL (rat [14]; [18]) was 0.5 mg/kg/day, the NEL (rat [14]; [18]) was 0.2 mg/kg/day and the NOAEL (rat [14]; [18]) was 0.2 mg/kg/day. It also gave an LEL (rat [14]; [35]) of 0.8 mg/kg/day, an LOAEL (rat [14]; [35]) of 0.8 mg/kg/day and an NEL (rat [14]; [35]) of 0.5 mg/kg/day. For the same compound, the NOAEL (rat [14]; [35]) was 0.5 mg/kg/day, the LEL (mouse [15]) was 7.5 mg/kg/day and the LOAEL (mouse [15]) was 7.5 mg/kg/day. The NEL (mouse [15]) was 3.75 mg/kg/day, the NOAEL (mouse [15]) was 3.75 mg/kg/day and the LEL (rat [16]; [36]) was 5.2 mg/kg/day. For the same compound, the LOAEL (rat [16]; [36]) was 5.2 mg/kg/day, the NEL (rat [16]; [37]) was 1.7 mg/kg/day and the NOAEL (rat [16]; [37]) was 1.7 mg/kg/day. The LEL (rat [16]; [38]) was 5.2 mg/kg/day, the LOAEL (rat [16]; [38]) was 5.2 mg/kg/day and the NEL (rat [16]; [38]) was 1.7 mg/kg/day. The NOAEL (rat [16]; [38]) was 1.7 mg/kg/day, the LEL (rat [17]; [39]) was 14.9 mg/kg/day and the LOAEL (rat [17]; [39]) was 14.9 mg/kg/day. The NEL (rat [17]; [39]) was 2.1 mg/kg/day, the NOAEL (rat [17]; [39]) was 2.1 mg/kg/day and the LEL (rat [17]; [40]) was 14.9 mg/kg/day. It also gave an LOAEL (rat [17]; [40]) of 14.9 mg/kg/day, an NEL (rat [17]; [40]) of 2.1 mg/kg/day and an NOAEL (rat [17]; [40]) of 2.1 mg/kg/day.
